Where “and” joins values, the source holds several entries; their conditions need not be identical. Equal entries are not always repeated.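 Grown in 96-well plates, cells were treated for 48 hours with each compound at five concentrations. Insufficient inhibition: endpoint recorded as highest concentration tested. The concentration for 50% growth inhibition is given as GI50. TGI marks complete inhibition of growth.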
The compounds below were run on HL-60(TB) leukemia (assay: NCI anticancer screen, dose series, 48 h).
Work on CC(C)(C)[Si](C)(C)OC1[C@@H](O[Si](C)(C)C(C)(C)C)[C@@H](CNC(=O)NC(=O)C(F)(F)F)O[C@H]1n1cnc2c(NC(=O)Nc3ccccc3)ncnc21 (stereo partly drawn) yielded a GI50 of 9.3 µM and a TGI of 26.4 µM.
CCOC(=O)n1cc(C2=C(c3ccc(OC)c(OC)c3)COC2=O)c2ccccc21 was tested, and the GI50 was 0.0279 µM and the TGI was 0.0851 µM.
CC(=C(c1ccc(OCCN2CCCCC2)cc1)c1ccc(OCCN2CCCCC2)cc1)c1ccc(Cl)cc1 was tested, and the GI50 was 0.452 µM and the TGI was 0.957 µM.
With C=CC(=O)Nc1cc(Nc2nccc(-c3cn(C)c4ccccc34)n2)c(OC)cc1N(C)CCN(C)C the GI50 was 1.47 µM and 1.71 µM and the TGI was 3.33 µM and 3.99 µM.
For CC(=O)OC1(C)N=NC2(CCCCC2)O1 (stereo not drawn), the TGI was greater than 100 µM.
COc1ccc2ncnc(Nc3ccc(OCc4ccccc4)cc3)c2c1 showed a GI50 of 7.06 µM and a TGI of 16.8 µM.
With O=C1c2c(F)c(F)c(F)c(F)c2C(=O)N1c1ccc(F)cc1F the GI50 was 0.403 µM and the TGI was 0.891 µM.
In the case of CC(C)[C@@H]1NC(=O)[C@]2(C)CSC(=N2)c2ccnc(c2)CNC(=O)C[C@@H](/C=C/CCS)OC1=O, the GI50 is reported as 0.513 µM and the TGI is reported as greater than 100 µM.
In the case of OC(c1cc(C(F)(F)F)nc2c(C(F)(F)F)cccc12)C1CCCCN1 (stereo not drawn), the GI50 is reported as 2.46 µM and the TGI is reported as 4.6 µM.
C/C=C/[C@@H]1O[C@@H]2COC(=O)C2=C[C@@H]1O gave a GI50 of 10.6 µM and a TGI greater than 100 µM.
Work on COC(=O)/C=C/c1cc(OC(C)=O)c2c(c1)[C@@H](C(=O)OC)[C@H](c1ccc(OC(C)=O)c(OC(C)=O)c1)O2 yielded a GI50 of 0.0288 µM and a TGI of 0.0934 µM.

These compounds were tested on HOP-92 NSCLC (assay: NCI anticancer screen, dose series, 48 h).
Compound CC[C@@H](c1ccc(O)c(O)c1)[C@@H](CC)c1ccc(O)c(O)c1 has a GI50 of 2.02 µM and a TGI of 6.09 µM.
COc1cc(-c2nc3sccn3c2-c2ccnc(NCCNS(=O)(=O)c3ccc(F)cc3)n2)ccc1F was tested, and the GI50 was 2.49 µM and the TGI was greater than 100 µM.
In the case of COc1cc(-c2nn(-c3cccc(NC(=O)c4ccccc4)c3)cc2-c2ccncc2)ccc1Cl, the GI50 is reported as 0.269 µM and the TGI is reported as 2.06 µM.
For Cc1cc(Nc2ccc(C)c(Cl)c2)n2nc(C(F)(F)F)nc2n1, the GI50 was 18 µM and the TGI was 59.4 µM.
For O=C1CSC(=S)N1/N=C/c1ccc(Cl)c([N+](=O)[O-])c1, the TGI was 67.7 µM.
C#Cc1cccc(Nc2nc3cc([N+](=O)[O-])ccc3nc2Nc2ccc(O)cc2)c1 gave a GI50 of 1.79 µM and a TGI of 3.6 µM.
CN(C)CC(O)c1ccc(/C=C/c2ccc(Cl)cc2)cc1 (stereo not drawn) was tested, and the GI50 was 1.26 µM and the TGI was 3.13 µM.
CCCCCCCCCCSC(=N)N (tested in a mixture with another compound) showed a GI50 of 2.66 µM and a TGI of 8.83 µM.
For CCOc1ccc(NC2=CC(=O)C(=O)c3ccccc32)cc1, the TGI was 30.7 µM.
COc1cc2c(cc1OC)-c1cc(OC)c(OC)cc1C(CN(C)C)C2 (stereo not drawn) showed a GI50 of 9.97 µM and a TGI greater than 10 µM.
O=C1c2ccccc2C(=O)c2c(/C=C\N3CCCCC3)ccnc21 showed a TGI of 32.1 µM.
C=C1C[C@H](O)[C@H](Br)C(C)(C)[C@@]12CCC(C)=C(Cl)C2 was tested, and the GI50 was 0.208 µM and the TGI was 0.802 µM.
Compound O=C(NC1CCCCC1)NS(=O)(=O)c1ccc(N2N=C3c4ccccc4CC3C2c2ccc(Cl)cc2)cc1 (stereo not drawn) has a GI50 of 10.8 µM and a TGI of 31.5 µM.
With c1ccc(-c2n(Cc3ccc4ccccc4n3)cc[n+]2Cc2ccc3ccccc3c2)cc1 the GI50 was 0.175 µM and the TGI was 1.46 µM.
In the case of O=C(Nc1cccc(C(F)(F)F)c1)Nc1cccc(C(F)(F)F)c1, the GI50 is reported as 0.786 µM and the TGI is reported as 6.08 µM.
CC(C)(C)[Si](C)(C)OC1[C@@H](O[Si](C)(C)C(C)(C)C)[C@@H](CNC(=O)NC(=O)C(F)(F)F)O[C@H]1n1cnc2c(NC(=O)Nc3ccccc3)ncnc21 (stereo partly drawn) gave a GI50 of 5.2 µM and a TGI of 11.8 µM.
For CCOC(=O)n1cc(C2=C(c3ccc(OC)c(OC)c3)COC2=O)c2ccccc21, the GI50 was 0.161 µM and the TGI was greater than 52.8 µM.
For CC(=C(c1ccc(OCCN2CCCCC2)cc1)c1ccc(OCCN2CCCCC2)cc1)c1ccc(Cl)cc1, the GI50 was 0.343 µM and the TGI was 0.711 µM.
For C=CC(=O)Nc1cc(Nc2nccc(-c3cn(C)c4ccccc34)n2)c(OC)cc1N(C)CCN(C)C, the GI50 was 0.793 µM and 0.416 µM and the TGI was 8.39 µM and 3.49 µM.
CC(=O)OC1(C)N=NC2(CCCCC2)O1 (stereo not drawn) showed a TGI greater than 100 µM.
Work on COc1ccc2ncnc(Nc3ccc(OCc4ccccc4)cc3)c2c1 yielded a GI50 of 2.92 µM and a TGI of 16.9 µM.
For O=C1c2c(F)c(F)c(F)c(F)c2C(=O)N1c1ccc(F)cc1F, the GI50 was 13.8 µM and the TGI was 31.9 µM.
CC(C)[C@@H]1NC(=O)[C@]2(C)CSC(=N2)c2ccnc(c2)CNC(=O)C[C@@H](/C=C/CCS)OC1=O gave a GI50 of 0.363 µM and a TGI of 2.81 µM.
OC(c1cc(C(F)(F)F)nc2c(C(F)(F)F)cccc12)C1CCCCN1 (stereo not drawn) gave a GI50 of 1.01 µM and a TGI of 3.69 µM.
In the case of C/C=C/[C@@H]1O[C@@H]2COC(=O)C2=C[C@@H]1O, the GI50 is reported as 0.747 µM and the TGI is reported as 9.35 µM.
COC(=O)/C=C/c1cc(OC(C)=O)c2c(c1)[C@@H](C(=O)OC)[C@H](c1ccc(OC(C)=O)c(OC(C)=O)c1)O2 showed a GI50 of 0.769 µM and a TGI of 22.4 µM.

What follows are compounds tested on K-562 leukemia (assay: NCI anticancer screen, dose series, 48 h).
Compound CC[C@@H](c1ccc(O)c(O)c1)[C@@H](CC)c1ccc(O)c(O)c1 has a GI50 of 3.38 µM and a TGI of 94.5 µM.
Work on COc1cc(-c2nc3sccn3c2-c2ccnc(NCCNS(=O)(=O)c3ccc(F)cc3)n2)ccc1F yielded a GI50 of 1.53 µM and a TGI greater than 100 µM.
Compound COc1cc(-c2nn(-c3cccc(NC(=O)c4ccccc4)c3)cc2-c2ccncc2)ccc1Cl has a GI50 of 0.39 µM and a TGI greater than 100 µM.
Cc1cc(Nc2ccc(C)c(Cl)c2)n2nc(C(F)(F)F)nc2n1 gave a GI50 of 16 µM and a TGI greater than 100 µM.
For O=C1CSC(=S)N1/N=C/c1ccc(Cl)c([N+](=O)[O-])c1, the TGI was greater than 100 µM.
In the case of C#Cc1cccc(Nc2nc3cc([N+](=O)[O-])ccc3nc2Nc2ccc(O)cc2)c1, the GI50 is reported as 2.1 µM and the TGI is reported as 6.41 µM.
With CN(C)CC(O)c1ccc(/C=C/c2ccc(Cl)cc2)cc1 (stereo not drawn) the GI50 was 1.14 µM and the TGI was 3.55 µM.
In the case of CCCCCCCCCCSC(=N)N (tested in a mixture with another compound), the GI50 is reported as 1.72 µM and the TGI is reported as 5.88 µM.
CCOc1ccc(NC2=CC(=O)C(=O)c3ccccc32)cc1 gave a TGI of 26.9 µM.
COc1cc2c(cc1OC)-c1cc(OC)c(OC)cc1C(CN(C)C)C2 (stereo not drawn) was tested, and the GI50 was greater than 10 µM and the TGI was greater than 10 µM.
With O=C1c2ccccc2C(=O)c2c(/C=C\N3CCCCC3)ccnc21 the TGI was 36 µM.
C=C1C[C@H](O)[C@H](Br)C(C)(C)[C@@]12CCC(C)=C(Cl)C2 was tested, and the GI50 was 0.443 µM and the TGI was 10.4 µM.
In the case of O=C(NC1CCCCC1)NS(=O)(=O)c1ccc(N2N=C3c4ccccc4CC3C2c2ccc(Cl)cc2)cc1 (stereo not drawn), the GI50 is reported as 6.71 µM and the TGI is reported as 22.4 µM.
In the case of c1ccc(-c2n(Cc3ccc4ccccc4n3)cc[n+]2Cc2ccc3ccccc3c2)cc1, the GI50 is reported as 0.427 µM and the TGI is reported as 4.36 µM.
For O=C(Nc1cccc(C(F)(F)F)c1)Nc1cccc(C(F)(F)F)c1, the GI50 was 0.431 µM and the TGI was 10.3 µM.
For CC(C)(C)[Si](C)(C)OC1[C@@H](O[Si](C)(C)C(C)(C)C)[C@@H](CNC(=O)NC(=O)C(F)(F)F)O[C@H]1n1cnc2c(NC(=O)Nc3ccccc3)ncnc21 (stereo partly drawn), the GI50 was 8.16 µM and the TGI was 24.7 µM.
For CCOC(=O)n1cc(C2=C(c3ccc(OC)c(OC)c3)COC2=O)c2ccccc21, the GI50 was 0.0325 µM and the TGI was greater than 100 µM.
With CC(=C(c1ccc(OCCN2CCCCC2)cc1)c1ccc(OCCN2CCCCC2)cc1)c1ccc(Cl)cc1 the GI50 was 0.0775 µM and the TGI was 0.362 µM.
For C=CC(=O)Nc1cc(Nc2nccc(-c3cn(C)c4ccccc34)n2)c(OC)cc1N(C)CCN(C)C, the GI50 was 1.73 µM and 0.349 µM and the TGI was 5.2 µM and 1.73 µM.
Compound CC(=O)OC1(C)N=NC2(CCCCC2)O1 (stereo not drawn) has a TGI greater than 100 µM.
With COc1ccc2ncnc(Nc3ccc(OCc4ccccc4)cc3)c2c1 the GI50 was 9.01 µM and the TGI was greater than 25 µM.
O=C1c2c(F)c(F)c(F)c(F)c2C(=O)N1c1ccc(F)cc1F was tested, and the GI50 was 2.58 µM and the TGI was greater than 33.9 µM.
Work on CC(C)[C@@H]1NC(=O)[C@]2(C)CSC(=N2)c2ccnc(c2)CNC(=O)C[C@@H](/C=C/CCS)OC1=O yielded a GI50 of 0.637 µM and a TGI greater than 100 µM.
For OC(c1cc(C(F)(F)F)nc2c(C(F)(F)F)cccc12)C1CCCCN1 (stereo not drawn), the GI50 was 3.12 µM and the TGI was 6.47 µM.
In the case of C/C=C/[C@@H]1O[C@@H]2COC(=O)C2=C[C@@H]1O, the GI50 is reported as 2.53 µM.
With COC(=O)/C=C/c1cc(OC(C)=O)c2c(c1)[C@@H](C(=O)OC)[C@H](c1ccc(OC(C)=O)c(OC(C)=O)c1)O2 the GI50 was 0.0378 µM and the TGI was greater than 49.2 µM.

These compounds were tested on MCF7 breast (assay: NCI anticancer screen, dose series, 48 h).
Work on CC[C@@H](c1ccc(O)c(O)c1)[C@@H](CC)c1ccc(O)c(O)c1 yielded a GI50 of 34.9 µM and a TGI greater than 100 µM.

From PubChem BioAssay (NCI)
